Results reported in patent US20220041606A1, “POSITIVE ALLOSTERIC MODULATORS OF THE MUSCARINIC ACETYLCHOLINE RECEPTOR M1” (Vanderbilt University, priority 2020, published 2022).

How the values were obtained:
[1] = biological target: T1, human mAChR M1 (Homo sapiens, UniProt P11229); assay: mAChR M1 cell-based functional assay (calcium mobilization), agonist activity upon compound addition; details: CHO-K1 cells expressing hM1; for EC50: compound alone, before acetylcholine addition; for Emax: relative to the maximum for acetylcholine
T1 construct: host or cells: CHO-K1 cells (ATCC), stably transfected using Lipofectamine2000
T1 sequence (P11229 1-460): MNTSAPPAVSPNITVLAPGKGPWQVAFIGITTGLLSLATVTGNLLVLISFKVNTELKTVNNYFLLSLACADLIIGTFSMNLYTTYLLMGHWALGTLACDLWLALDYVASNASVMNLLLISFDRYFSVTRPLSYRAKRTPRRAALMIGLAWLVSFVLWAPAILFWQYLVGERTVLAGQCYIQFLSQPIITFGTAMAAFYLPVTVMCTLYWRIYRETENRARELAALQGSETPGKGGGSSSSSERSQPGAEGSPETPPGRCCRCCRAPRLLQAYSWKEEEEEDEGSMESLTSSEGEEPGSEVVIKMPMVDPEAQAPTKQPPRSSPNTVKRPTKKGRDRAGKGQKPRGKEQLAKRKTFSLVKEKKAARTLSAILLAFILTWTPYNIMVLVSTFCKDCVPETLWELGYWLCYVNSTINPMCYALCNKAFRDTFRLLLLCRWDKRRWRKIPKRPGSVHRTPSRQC
Excerpt: (§1) Chinese hamster ovary (CHO-K1) cells stably expressing rat (r)M1 were purchased from the American Type Culture Collection and cultured according to their indicated protocol. CHO cells stably expressing human (h)M2, hM3, and hM5 were described previously (Levey, et al., 1991); hM1 and hM4 cDNAs were purchased from Missouri S&T cDNA Resource; rM4 cDNA was provided by T. L. Bonner (National Institutes of Health, Bethesda, MID). rM2 and rM3 were cloned from a rat brain cDNA library and sequence verified. hM1, rM2, rM3, hM4, and rM4 cDNAs were used to stably transfect CHO-K1 cells purchased from the American Type Culture Collection using Lipofectamine2000. To make stable rM2, hM2, rM3, hM4, and rM4 cell lines for use in calcium mobilization assays, these cells also were stably transfected with a chimeric G-protein (Gqi5) (provided by B. R. Conklin, University of California, San Francisco) using Lipofectamine 2000. rM1, hM1, rM3, hM3, rM5, and hM5 cells were grown in Ham's F-12 medium containing 10% heat-inactivated fetal bovine serum (FBS), 20 mM HEPES, and 50 μg/mL G418 sulfate. rM2-Gq15, hM2-Gqi5, and hM4-Gqi5 cells were grown in the same medium also containing 500 μg/mL Hygromycin B. Stable rM4-Gqi5 cells were grown in DMEM containing 10% heat-inactivated FBS, 20 mM HEPES, 400 μg/mL G418 sulfate, and 500 μg/mL Hygromycin B.
(§2) For high throughput measurement of agonist-evoked increases in intracellular calcium, CHO-K1 cells stably expressing muscarinic receptors were plated in growth medium lacking G418 and hygromycin at 15,000 cells/20 μL/well in Greiner 384-well black-walled, tissue culture (TC)-treated, clear-bottom plates (VWR). Cells were incubated overnight at 37° C. and 5% CO2. The next day, cells were washed using an ELX 405 (BioTek) with four washes (80 μL) of assay buffer then aspirated to 20 μL. Next, 20 μL of 16 μM Fluo-4/acetoxymethyl ester (Invitrogen, Carlsbad, Calif.) prepared as a 2.3 mM stock in DMSO and mixed in a 1:1 ratio with 10% (w/v) Pluronic F-127 and diluted in assay buffer was added to the wells and the cell plates were incubated for 50 min at 37° C. and 5% CO2. Dye was removed by washing with the ELX 405 (four 80 μL washes of assay buffer) then aspirated to 20 μL. Compound master plates were formatted in an 11 point CRC format (1:3 dilutions) in 100% DMSO with a starting concentration of 10 mM using the BRAVO liquid handler (Agilent). Test compound CRCs were then transferred to daughter plates (240 nL) using the Echo acoustic plate reformatter (Labcyte, Sunnyvale, Calif.) and then diluted into assay buffer (40 μL) to a 2× stock using a Thermo Fisher Combi (Thermo Fisher Scientific, Waltham, Mass.).
(§3) Calcium flux was measured using the Functional Drug Screening System (FDSS) 6000 (Hamamatsu Corporation, Tokyo, Japan) as an increase in the fluorescent static ratio. Compounds were applied to cells (20 μL, 2×) using the automated system of the FDSS 6000 at 4 s into the 300 s protocol and the data were collected at 1 Hz. At 144 s into the 300s protocol, 10 μL of an EC20 concentration of the muscarinic receptor agonist acetylcholine was added (5×), followed by the addition of 12 μL an EC80 concentration of acetylcholine at the 230 s time point (5×). Agonist activity was analyzed as a concentration-dependent increase in calcium mobilization upon compound addition. Emax values for agonist activity are expressed relative to the maximum for acetylcholine. Positive allosteric modulator activity was analyzed as a concentration-dependent increase in the EC20 acetylcholine response. Antagonist activity was analyzed as a concentration-dependent decrease in the EC80 acetylcholine response. Concentration-response curves were generated using a four-parameter logistical equation in XLfit curve fitting software (IDBS, Bridgewater, N.J.) for Excel (Microsoft, Redmond, Wash.) or Prism (GraphPad Software, Inc., San Diego, Calif.). […]

[2] = biological target: T1, human mAChR M1; assay: mAChR M1 cell-based functional assay (calcium mobilization), PAM activity: increase in the EC20 acetylcholine response; details: CHO-K1 cells expressing hM1; potentiation of EC20 acetylcholine response
Excerpt: as §1, §2, §3

Cn1cc2c(-c3cc(F)c(Cn4cc(C(=O)N[C@H]5CC[C@@H]5O)c5nccnc5c4=O)c(F)c3)cccc2n1 [Compound A69, 6-(2,6-difluoro-4-(2-methyl-2H-indazol-4-yl)benzyl)-N-((1S,2S)-2-hydroxycyclobutyl)-5-oxo-5,6-dihydropyrido[3,4-b]pyrazine-8-carboxamide]
EC50 [1]: > 10 µM | Emax [1]: < 5% | EC50 [2]: 3.89 µM | Emax [2]: 57%

Cn1cc(-c2ccc(Cn3cc(C(=O)NC4CC5(COC5)C4)c4occc4c3=O)c(F)c2)cn1 [Compound D17, 5-(2-fluoro-4-(1-methyl-1H-pyrazol-4-yl)benzyl)-4-oxo-N-(2-oxaspiro[3.3]heptan-6-yl)-4,5-dihydrofuro[3,2-c]pyridine-7-carboxamide]
EC50 [1]: > 10 µM | Emax [1]: < 5% | EC50 [2]: > 10 µM | Emax [2]: 40%

Cn1ccc(-c2ccc(Cn3cc(C(=O)N[C@H]4CCC[C@@H]4O)c4nccn4c3=O)c(F)c2)n1 [Compound B3, 6-(2-fluoro-4-(1-methyl-1H-pyrazol-3-yl)benzyl)-N-((1S,2S)-2-hydroxycyclopentyl)-5-oxo-5,6-dihydroimidazo[1,2-c]pyrimidine-8-carboxamide]
Emax [1]: 33% | EC50 [2]: 0.54 µM | Emax [2]: 67%

Cn1cc(-c2ccc(Cn3cc(C(=O)NC4CCOCC4)c4ncccc4c3=O)c(F)c2)cn1 [Compound A10, 6-(2-fluoro-4-(1-methyl-1H-pyrazol-4-yl)benzyl)-5-oxo-N-(tetrahydro-2H-pyran-4-yl)-5,6-dihydro-1,6-naphthyridine-8-carboxamide]
EC50 [1]: > 10 µM | Emax [1]: < 5% | EC50 [2]: ≥ 10 µM | Emax [2]: 59%

Cn1cc2c(-c3cc(F)c(Cn4cc(C(=O)N[C@H]5CCC[C@@H]5O)c5occc5c4=O)c(F)c3)cccc2n1 [Compound D20, 5-(2,6-difluoro-4-(2-methyl-2H-indazol-4-yl)benzyl)-N-((1S,2S)-2-hydroxycyclopentyl)-4-oxo-4,5-dihydrofuran[3,2-c]pyridine-7-carboxamide]
EC50 [1]: > 10 µM | Emax [1]: < 5% | EC50 [2]: 0.81 µM | Emax [2]: 77%

CC(C)[C@@H](CO)NC(=O)c1cn(Cc2ccc(-c3cnn(C)c3)cc2F)c(=O)c2nccnc12 [Compound A82, (S)-6-(2-fluoro-4-(1-methyl-1H-pyrazol-4-yl)benzyl)-N-(1-hydroxy-3-methylbutan-2-yl)-5-oxo-5,6-dihydropyrido[3,4-b]pyrazine-8-carboxamide]
EC50 [1]: > 10 µM | Emax [1]: < 5% | EC50 [2]: ≥ 10 µM | Emax [2]: 26%

Cn1nccc1-c1ccc(Cn2cc(C(=O)N[C@H]3CCC[C@@H]3O)c3nccn3c2=O)c(F)c1 [Compound B33, 6-(2-fluoro-4-(1-methyl-1H-pyrazol-5-yl)benzyl)-N-((1S,2S)-2-hydroxycyclopentyl)-5-oxo-5,6-dihydroimidazo[1,2-c]pyrimidine-8-carboxamide]
EC50 [1]: > 10 µM | Emax [1]: < 5% | EC50 [2]: 2.23 µM | Emax [2]: 57%

O=C(N[C@H]1CCCC[C@@H]1O)c1cn(Cc2ccc(-n3cccn3)cc2)c(=O)c2nccnc12 [Compound A53, 6-(4-(1H-pyrazol-1-yl)benzyl)-N-((1S,2S)-2-hydroxycyclohexyl)-5-oxo-5,6-dihydropyrido[3,4-b]pyrazine-8-carboxamide]
EC50 [1]: > 10 µM | Emax [1]: < 5% | EC50 [2]: 9.64 µM | Emax [2]: 48%

CC[C@H](C)[C@@H](CO)NC(=O)c1cn(Cc2c(F)cc(-c3cccc4nn(C)cc34)cc2F)c(=O)c2nccnc12 [Compound A76, 6-(2,6-difluoro-4-(2-methyl-2H-indazol-4-yl)benzyl)-N-((2S,3S)-1-hydroxy-3-methylpentan-2-yl)-5-oxo-5,6-dihydropyrido[3,4-b]pyrazine-8-carboxamide]
EC50 [1]: > 10 µM | Emax [1]: < 5% | EC50 [2]: 4.33 µM | Emax [2]: 53%

Cn1cc(-c2ccc(Cn3cc(C(=O)N[C@H]4CCCCC[C@@H]4O)c4ncncc4c3=O)c(F)c2)cn1 [Compound A91, 6-(2-fluoro-4-(1-methyl-1H-pyrazol-4-yl)benzyl)-N-((1S,2S)-2-hydroxycycloheptyl)-5-oxo-5,6-dihydropyrido[4,3-d]pyrimidine-8-carboxamide]
EC50 [1]: > 10 µM | Emax [1]: < 5% | EC50 [2]: ≥ 10 µM | Emax [2]: 34%

Cc1cc(-c2cc(F)c(Cn3cc(C(=O)N[C@H]4CCOC[C@@H]4O)c4ncccc4c3=O)c(F)c2)ccn1 [Compound A36, 6-(2,6-difluoro-4-(2-methylpyridin-4-yl)benzyl)-N-((3R,4S)-3-hydroxytetrahydro-2H-pyran-4-yl)-5-oxo-5,6-dihydro-1,6-naphthyridine-8-carboxamide]
EC50 [1]: 1.77 µM | Emax [1]: 13% | EC50 [2]: 0.61 µM | Emax [2]: 65%

Cc1cc(-c2cc(F)c(Cn3cc(C(=O)N[C@H]4CCCC[C@@H]4O)c4ncccc4c3=O)c(F)c2)ccn1 [Compound A37, 6-(2,6-difluoro-4-(2-methylpyridin-4-yl)benzyl)-N-((1S,2S)-2-hydroxycyclohexyl)-5-oxo-5,6-dihydro-1,6-naphthyridine-8-carboxamide]
EC50 [1]: > 10 µM | Emax [1]: < 5% | EC50 [2]: 0.78 µM | Emax [2]: 46%

Cc1cn2c(=O)n(Cc3ccc(-n4cccn4)cc3)cc(C(=O)N[C@H]3CCCC[C@@H]3O)c2n1 [Compound B28, 6-(4-(1H-pyrazol-1-yl)benzyl)-N-((1S,2S)-2-hydroxycyclohexyl)-2-methyl-5-oxo-5,6-dihydroimidazo[1,2-c]pyrimidine-8-carboxamide]
EC50 [1]: > 10 µM | Emax [1]: < 5% | EC50 [2]: ≥ 10 µM | Emax [2]: 30%

Cn1cc(-c2ccc(Cn3cc(C(=O)NCC(C)(C)O)c4nccnc4c3=O)c(F)c2)cn1 [Compound A80, 6-(2-fluoro-4-(1-methyl-1H-pyrazol-4-yl)benzyl)-N-(2-hydroxy-2-methylpropyl)-5-oxo-5,6-dihydropyrido[3,4-b]pyrazine-8-carboxamide]
EC50 [1]: > 10 µM | Emax [1]: < 5% | EC50 [2]: ≥ 10 µM | Emax [2]: 30%

Cn1cc2c(-c3cc(F)c(Cn4cc(C(=O)N[C@H]5CCCCC[C@@H]5O)c5nccn5c4=O)c(F)c3)cccc2n1 [Compound B19, 6-(2,6-difluoro-4-(2-methyl-2H-indazol-4-yl)benzyl)-N-((1S,2S)-2-hydroxycycloheptyl)-5-oxo-5,6-dihydroimidazo[1,2-c]pyrimidine-8-carboxamide]
EC50 [1]: 5.24 µM | Emax [1]: 51% | EC50 [2]: 0.47 µM | Emax [2]: 42%
